pIC50: −log10 of the molar value.
Columns and labels:
[1] = target: T1, Bovine lysyl oxidase (LOX) (Bos taurus, UniProt P33072); assay: LOX inhibition assay, fluorometric (cadaverine / HRP / Amplex Red); format: biochemical; settings: LOX extracted from bovine tendon, 30 min preincubation at 37° C., 5 mM cadaverine; for pIC50: read-out: Activity Range LOX
T1 construct: from tissue; host or cells: adult bovine tendon
T1 sequence (P33072 170-418): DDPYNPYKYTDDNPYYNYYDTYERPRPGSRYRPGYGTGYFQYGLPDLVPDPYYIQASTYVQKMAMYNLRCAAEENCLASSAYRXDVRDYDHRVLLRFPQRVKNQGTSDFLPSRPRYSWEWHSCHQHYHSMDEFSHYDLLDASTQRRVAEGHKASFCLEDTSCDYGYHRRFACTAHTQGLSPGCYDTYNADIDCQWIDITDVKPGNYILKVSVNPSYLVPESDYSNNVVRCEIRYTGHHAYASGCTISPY
Protocol: The ability of compounds to inhibit prototypic LOX was determined using a fluorometric assay. This assay measures the activity of lysyl oxidases by coupling the reaction with horseradish peroxidase-catalyzed […]. The activity assay protocol uses cadaverine as substrate that releases hydrogen peroxide upon transformation by prototypic LOX enzyme present in the sample. Hydrogen peroxide was in turn detected using a red fluorescence substrate for HRP-coupled reactions (Amplex Red Enzyme Assays, Thermo Scientific Fisher). This lead to an increase in fluorescence that can be easily detected at Ex/Em=540/590 nm in a fluorescence microplate
Bovine lysyl oxidase (LOX) was extracted by adapting the methodology from [Kagan et al. 1979 and Borel et al. 2001.] from bovine tendon: Frozen adult bovine tendon was placed in room temperature water to defrost, and then membranes were removed and the remaining tissue cut into 1 cm pieces. The material was first passed through a course mesh meat grinder, and this mince was passed through a fine mesh grinder. The mince was homogenized in 10 v/w of buffer (16 mM sodium phosphate buffer pH 7.8, 400 mM NaCl) using a Waring blender. The homogenate was centrifuged at 15,000×g for 15 min at 4° C. After centrifugation, the supernatant was discarded and the pellets resuspended in 10 volumes of the same buffer. The mixture was blended again and centrifuged with the same settings. This time the pellets were blended in 3 volumes of extraction buffer (16 mM sodium phosphate buffer pH 7.8) and left to incubate at 4° C. for 2 h. After this time, the slurry was centrifuged with the same settings as described above. The supernatant was used in an ultrafiltration step to remove large proteins by size exclusion through a 30 kDalton filter (EMD Millipore). The filtrate was mixed with DEAE Sephadex (GE Healthcare), or passed over a MonoQ FPLC column. After two washes, one in 16 mM sodium phosphate buffer pH 7.8, 380 mM NaCl, and another in 16 mM sodium phosphate buffer pH 7.8, the proteins were eluted with 16 mM sodium phosphate pH 7.8, 10 μM CuSO4, and 4 M urea. Fractions containing Lox activity were collected and stored frozen at −70° C.
Final concentration in the LOX assay is shown in Table 6 below and performed in a total volume of […].
7 μl of freshly prepared reaction buffer were delivered to reaction wells. Compounds were resuspended in 100% DMSO at 10 mM and delivered into buffer using acoustic technology (Echo550; nanoliter range). A 2.85× solution of LOX protein in reaction buffer was prepared (“LOX solution”) and 7 μl of LOX solution was added into the reaction wells. Buffer only was added to column 1 for no protein control. Reactions were incubated for 30 minutes at 37° C. A 3.33× mixture of cadaverine, Amplex Red, and HRP (“Substrate/Detection Mix) was prepared and subsequently 6 μL of the mixture was added to each reaction well. Progress of reactions was monitored for 120 minutes at 37° C. using Clariostar plate reader (ex530-12, ems 600-40). For all activity assays, pan-LOX inhibitor CCT365623 (Tang et al, 2017) and LOXL2/LOXL3 inhibitor PAT-1251 (PharmaKea) were included as standards.
The slope of the linear portion of the progress curve was calculated using Clariostar software. Typical analysis interval was between 20-50 min, but varied between experiments. The background subtracted signals (No protein wells were considered as background) were converted to % activity relative to DMSO controls. Data was analyzed using GraphPad Prism 4 with “sigmoidal dose-response (variable slope)”; 4 parameters with Hill Slope. Constraints: Bottom=Constant equal to 0. Top=Must be less than 120.

[2] = target: T2, Recombinant human LOXL2 (lysyl oxidase like 2) (Homo sapiens, UniProt Q9Y4K0); assay: LOXL2 inhibition assay, fluorometric (cadaverine / HRP / Amplex Red); format: biochemical; settings: recombinant human LOXL2 130 nM; 30 min preincubation at 37° C.; 2.5 mM cadaverine; read-out: Activity Range LOXL2
T2 construct: purchased R&D systems
T2 sequence (Q9Y4K0 26-774): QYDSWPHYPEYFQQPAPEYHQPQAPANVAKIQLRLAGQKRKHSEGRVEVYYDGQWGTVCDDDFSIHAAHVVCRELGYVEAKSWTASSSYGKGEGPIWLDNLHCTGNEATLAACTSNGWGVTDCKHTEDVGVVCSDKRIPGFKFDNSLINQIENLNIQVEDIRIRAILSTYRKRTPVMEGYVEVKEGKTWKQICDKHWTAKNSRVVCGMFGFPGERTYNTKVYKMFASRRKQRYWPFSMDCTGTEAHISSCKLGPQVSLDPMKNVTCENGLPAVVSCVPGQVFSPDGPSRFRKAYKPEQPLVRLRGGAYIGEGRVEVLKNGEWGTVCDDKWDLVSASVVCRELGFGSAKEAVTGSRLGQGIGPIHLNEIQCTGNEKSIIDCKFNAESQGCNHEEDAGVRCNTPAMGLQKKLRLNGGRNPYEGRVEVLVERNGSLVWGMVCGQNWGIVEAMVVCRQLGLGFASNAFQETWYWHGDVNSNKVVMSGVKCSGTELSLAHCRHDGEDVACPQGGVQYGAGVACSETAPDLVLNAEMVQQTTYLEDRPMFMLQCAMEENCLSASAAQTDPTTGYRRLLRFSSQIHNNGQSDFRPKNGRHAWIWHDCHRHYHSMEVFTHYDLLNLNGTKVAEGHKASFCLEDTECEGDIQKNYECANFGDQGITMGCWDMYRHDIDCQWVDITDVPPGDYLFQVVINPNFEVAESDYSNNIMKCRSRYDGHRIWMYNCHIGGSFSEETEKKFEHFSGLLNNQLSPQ
Protocol: The ability of compounds to inhibit one or more of the lysyl oxidases LOXL2 and/or LOXL3 was determined using a fluorometric assay. This assay measures the activity of lysyl oxidases by coupling the reaction with horseradish peroxidase-catalyzed […]. The activity assay protocol uses cadaverine as substrate that releases hydrogen peroxide upon transformation by the specific LOX family enzyme present in the sample. Hydrogen peroxide is in turn detected using a red fluorescence substrate for HRP-coupled reactions (Amplex Red Enzyme Assays, Thermo Scientific Fisher). This leads to increase in fluorescence that can be easily detected at Ex/Em=540/590 nm in a fluorescence microplate reader.
Recombinant human LOXL2 (lysyl oxidase like 2) and recombinant human LOXL3 (lysyl oxidase like 3) were purchased from R&D systems and assays were performed in 1.2 M urea, 50 mM sodium borate buffer pH 8.0, and 10 mM CaCl.
5 μl of freshly prepared reaction buffer were delivered to reaction wells. Compounds were resuspended in 100% DMSO at 10 mM and delivered into buffer using acoustic technology (Echo550; nanoliter range). A 3× solution of LOXL2 or LOXL3 in reaction buffer was prepared (“enzyme solution”) and 5 μL of enzyme solution was added into the reaction wells. Buffer only was added to column 1 for no protein control. Reactions were incubated for 30 minutes at 37° C. A 3× mixture of cadaverine, Amplex Red, and HRP (“Substrate/Detection Mix) was prepared and subsequently 5 μL of the mixture added to each reaction well. Progress of reactions was monitored for 60 minutes at 37° C. using Clariostar plate reader (ex 530-12, ems 600-40). For all activity assays, pan-LOX inhibitor CCT365623 (Tang et al, 2017) and LOXL2/LOXL3 inhibitor PAT-1251 (PharmaKea) were included as standards.
For the data analysis, the slope of the linear portion of the progress curve was calculated using Clariostar software. Typical analysis interval was between 8-30 min, but varied between experiments. The background-subtracted signals (No protein wells are considered as background) were converted to % activity relative to DMSO controls. Data was analyzed using GraphPad Prism 4 with “sigmoidal dose-response (variable slope)”; 4 parameters with Hill Slope. Constraints: Bottom=Constant equal to 0. Top=Must be less than 120.

SMILES | pIC50 [1] | pIC50 [2] | Activity Range LOX [1]
NCc1ccc(S(=O)(=O)C[C@@H]2C[C@H](c3ccccc3F)CN2S(=O)(=O)N2CCOCC2)s1 (racemic) [Example 207, cis-(5-(((4-(2-Fluorophenyl)-1-(morpholinosulfonyl)pyrrolidin-2-yl)methyl)sulfonyl)thiophen-2-yl)methanamine 2,2,2-trifluoroacetate] | ≥ 6.30 | ≥ 6.30 | –
NCc1ccc(S(=O)(=O)C[C@@H]2C[C@H](c3ccc(F)cc3)CN2S(=O)(=O)N2CCS(=O)(=O)CC2)s1 (racemic) [Example 210, cis-4-((2-(((5-(Aminomethyl)thiophen-2-yl)sulfonyl)methyl)-4-(4-fluorophenyl)pyrrolidin-1-yl)sulfonyl)thiomorpholine 1,1-dioxide 2,2,2-trifluoroacetate] | 4.52 to 6.00 | ≥ 6.30 | –
NCc1ccnc(OC[C@@H]2C[C@H](c3ccc(F)cc3)CN2S(=O)(=O)N2CCOCC2)c1 (racemic) [Example 212, cis-(2-((4-(4-Fluorophenyl)-1-(morpholinosulfonyl)pyrrolidin-2-yl)methoxy)pyridin-4-yl)methanamine 2,2,2-trifluoroacetate] | 4.52 to 6.00 | ≥ 6.30 | –
NCc1ccnc(OC[C@@H]2C[C@H](c3ccc(F)cc3)CN2S(=O)(=O)N2CCS(=O)(=O)CC2)c1.O=C(O)C(F)(F)F (racemic) [Example 214, cis-((2-(((4-(Aminomethyl)pyridin-2-yl)oxy)methyl)-4-(4-fluorophenyl)pyrrolidin-1-yl)sulfonyl)thiomorpholine 1,1-dioxide 2,2,2-trifluoroacetate] | – | ≥ 6.30 | Inactive
NCc1cccc(OC[C@@H]2C[C@H](c3ccc(F)cc3)CN2S(=O)(=O)N2CCOCC2)c1.O=C(O)C(F)(F)F (racemic) [Example 216, cis-(3-((4-(4-Fluorophenyl)-1-(morpholinosulfonyl)pyrrolidin-2-yl)methoxy)phenyl)methanamine 2,2,2-trifluoroacetate] | – | 6.00 to 6.30 | Inactive
NCc1cccc(OC[C@@H]2C[C@H](c3ccc(F)cc3)CN2S(=O)(=O)N2CCS(=O)(=O)CC2)c1 (racemic) [Example 218, cis-4-((2-((3-(Aminomethyl)phenoxy)methyl)-4-(4-fluorophenyl)pyrrolidin-1-yl)sulfonyl)thiomorpholine 1,1-dioxide] | 4.52 to 6.00 | ≥ 6.30 | –

The next lines start with the values.

pIC50 [1] | pIC50 [2] | Activity Range LOX [1] | SMILES
4.52 to 6.00 | ≥ 6.30 | – | CS(=O)(=O)N1C[C@@H](c2ccccc2)C[C@H]1CS(=O)(=O)c1ccc(CN)cc1 (racemic) [Example 26, cis-(4-(((1-(Methylsulfonyl)-4-phenylpyrrolidin-2-yl)methyl)sulfonyl)phenyl)methanamine 2,2,2-trifluoroacetate]
4.52 to 6.00 | ≥ 6.30 | – | CS(=O)(=O)N1C[C@@H](c2ccccc2)C[C@H]1CS(=O)(=O)c1cccc(CN)c1 (racemic) [Example 27, cis-(3-(((1-(Methylsulfonyl)-4-phenylpyrrolidin-2-yl)methyl)sulfonyl)phenyl)methanamine 2,2,2-trifluoroacetate]
4.52 to 6.00 | ≥ 6.30 | – | NCc1ccnc(S(=O)(=O)C[C@@H]2C[C@H](c3ccccc3F)CN2S(=O)(=O)N2CCOCC2)c1 (racemic) [Example 203, cis-(2-(((4-(2-fluorophenyl)-1-(morpholinosulfonyl)pyrrolidin-2-yl)methyl)sulfonyl)pyridin-4-yl)methanamine 2,2,2-trifluoroacetate]
4.52 to 6.00 | ≥ 6.30 | – | NCc1ccnc(S(=O)(=O)C[C@@H]2C[C@H](c3ccc(F)cc3)CN2S(=O)(=O)N2CCOCC2)c1 (racemic) [Example 204, cis-(2-(((4-(4-fluorophenyl)-1-(morpholinosulfony1)pyrrolidin-2-yl)methyl)sulfonyl)pyridin-4-yl)methanamine 2,2,2-trifluoroacetate]
4.52 to 6.00 | ≥ 6.30 | – | NCc1ccnc(S(=O)(=O)C[C@@H]2C[C@H](c3ccc(F)cc3)CN2S(=O)(=O)N2CCS(=O)(=O)CC2)c1 (racemic) [Example 206, cis-4-((2-(((4-(Aminomethyl)pyridin-2-yl)sulfonyl)methyl)-4-(4-fluorophenyl)pyrrolidin-1-yl)sulfonyl)thiomorpholine 1,1-dioxide 2,2,2-trifluoroacetate]
≥ 6.30 | ≥ 6.30 | – | NCc1ccc(S(=O)(=O)C[C@@H]2C[C@H](c3ccc(F)cc3)CN2S(=O)(=O)N2CCOCC2)s1 (racemic) [Example 208, cis-(5-(((4-(4-Fluorophenyl)-1-(morpholinosulfonyl)pyrrolidin-2-yl)methyl)sulfonyl)thiophen-2-yl)methanamine 2,2,2-trifluoroacetate]
